Patent publication US20240294465A1, “NOVEL ANTI-FIBROTIC DRUGS” (HELMHOLTZ ZENTRUM MUNCHEN - DEUTSCHES FORSCHUNGSZENTRUM FUR …, priority 2021, published 2024)

Assays:
[1] = system: human lung organoids derived from human lung progenitor cells; experiment: Human lung organoid growth (colony formation efficiency); type: cell-based; conditions: 10 μM, 14 days in culture
[2] = system: profibrotic gene signatures in phLFs+TGFβ1; experiment: Microarray transcriptomics and UMAP regulation pattern clustering in phLFs; type: cell-based, human; conditions: phLFs+TGFβ1+example 84
Method: Total RNA was isolated PEQGold Total RNA Kit (PeqLab) according to the manufacturer's instructions including gDNA elimination. The Agilent 2100 Bioanalyzer was used to assess RNA quality and RNA with RIN>7 was used for microarray analysis. Total RNA (150 ng) was amplified using the WT PLUS Reagent Kit (Thermo Fisher Scientific Inc., Waltham, USA). Amplified cDNA was hybridized on Human ClariomS arrays (Thermo Fisher Scientific). Staining and scanning (GeneChip Scanner 3000 7G) was done according to manufacturer's instructions. Transcriptome Analysis Console (TAC; version 4.0.0.25; Thermo Fisher Scientific) was used for quality control and to obtain annotated normalized SST-RMA gene-level data. Statistical analyses were performed by utilizing the statistical programming environment R (R Development Core Team Ref1). Genewise testing for differential expression was done employing the paired limma t-test and Benjamini-Hochberg multiple testing correction (FDR<10%). To reduce background, gene sets were filtered using DABG p-values<0.05 in at least one sample per pair and in at least two of three pairs per analysis. […] Then, clusters of genes were extracted. Gene/protein interactions were visualized using the String Database (www.stringdb.org).

phLFs = experiment: Cytotoxicity assays (MTT, live/dead calcein, caspase 3/7); type: cell-based; conditions: confluent phLFs+TGFβ1
Excerpt: Viability/Cytotoxicity Assay Kit for Animal Live and Dead Cells was obtained from Biotium, Cat. No. 3002). CellEvent™ Caspase 3/7 Green Detection Reagent was acquired from Invitrogen, Cat. No. C10423. For MTT-assays, Thiazolyl Blue Tetrazolium was bought from SigmaAldrich (M5655-1G). All these kits and assays were used according to the manufacturer's instructions.

[3] = system: cellular contractility of phLFs; experiment: 3D collagen gel contractility assay of primary human lung fibroblasts; type: cell-based; conditions: n=3 patient phLFs
Method: In a 96-well imaging plate 50 μl 3D collagen gels were casted per well as described before (30), and 20.000 phLFs per well were seeded on top. Cells were treated with 1 ng/mL TGFβ1 and/or example 84. After 72 h cells were fixed with 4% paraformaldehyde. Collagen gels were imaged using an Axiolmager2 (Zeiss) and the gel diameter was determined using Zen Blue v2.5 (Zeiss).

CXCL8/IL-8 = experiment: Human precision cut lung slices (PCLS) with fibrotic cocktail: IL-8 ELISA; type: cell-based; conditions: living human PCLS
Method: PCLS were prepared as described before (31, 32). Shortly, PCLS were prepared from tumor-free peri-tumor tissue. The lung tissue was inflated with 3% agarose solution and solidified at 4° C. Tissue blocks were cut in μm thick PCLS using a vibration microtome Hyrax V50 (Zeiss). PCLS were cultured in DMEM F-12 medium and treated with a profibrotic cocktail, as described before (31), or vehicle, as well as with small molecules or vehicles for 7 days. After culturing and treatments, supernatants were harvested. PCLS were […] washed in PBS and protein was extracted as previously described (33). Briefly, PCLS were pooled in an Eppendorf tube and lysed in 500 μl ice-cold RIPA buffer (50 mM Tris-CI pH 7.4, 150 mM NaCl, 1% NP40, 0.25% Na-deoxycholate) containing 1× Roche complete mini protease inhibitor cocktail (Roche, Cat. #11697498001). After an incubation of 2 hours rotating at 4° C., the lung slices were removed from the lysates and the protein content was measured.
Cells were scraped off the plastic dish directly into 200 μl ice-cold RIPA buffer containing 1× Roche complete mini protease inhibitor cocktail. […] CXCL/IL-8 concentrations were determined using Human IL-8/CXCL8 DuoSet ELISA (DY208-05) according to the manufacturer's protocol.

CCCCOc1ccccc1NC(=O)/C=C/c1ccc(OC)c(OC)c1 [Example 84, (E)-N-(2-butoxyphenyl)-3-(3,4-dimethoxyphenyl)acrylamide]
organoid growth [1]: inhibited organoid growth | viability of lung progenitor cells (calcein / ethidium homodimer III) [1]: many lung progenitor cells are still viable | gene-set enrichment analysis (collagen formation, extracellular matrix organization, smooth-muscle contraction) [2]: negative enrichment for profibrotic gene signatures | viability (calcein staining) (phLFs): proving viability | cellular contractility (collagen gel) [3]: significant inhibition of cellular contractility | CXCL8/IL-8 (ELISA) (CXCL8/IL-8): diminution of pro-fibrotic CXCL8/IL-8
